Measurements taken from patent US8642788B2, “Activators of executioner procaspases 3, 6 and 7” (The Regents of the University of California, priority 2008, dated 2014).
Where two headings read alike, the source gives them in different places.

What was measured:
Type in all cases: biochemical
procaspase-6 = molecular target: T1, procaspase-6 (Homo sapiens, UniProt P55212); experiment: Executioner procaspase-6 activation assay (Ac-VEID-AFC fluorogenic substrate); conditions: incubation with compound for 5 h at 37° C.; 100 nM procaspase
T1 sequence (P55212 1-293): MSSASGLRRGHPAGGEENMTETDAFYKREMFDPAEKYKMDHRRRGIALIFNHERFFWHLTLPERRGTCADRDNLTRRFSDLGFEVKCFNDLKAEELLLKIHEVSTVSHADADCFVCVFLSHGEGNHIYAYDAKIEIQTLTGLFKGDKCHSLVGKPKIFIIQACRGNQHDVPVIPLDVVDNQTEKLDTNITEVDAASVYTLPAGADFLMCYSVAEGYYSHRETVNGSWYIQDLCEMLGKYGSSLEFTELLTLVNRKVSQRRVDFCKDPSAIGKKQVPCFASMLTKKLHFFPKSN
Procedure, shortened: (§1)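 Procaspase at 100 nM incubated with compound (100 nM–100 μM) in 50 mM HEPES pH 7.4, KCl, DTT, 0.01% Triton X-100, 3% DMSO, 37 °C for 5 h; then 25 μM Ac-DEVD-AFC (procaspase-7) or Ac-VEID-AFC (procaspase-6), kinetic fluorescence 30 min (ex 365/em 495); EC50 reported.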

procaspase-7 = molecular target: T2, procaspase-7 (Homo sapiens, UniProt P55210); experiment: Executioner procaspase-7 activation assay (Ac-DEVD-AFC fluorogenic substrate); conditions: incubation with compound for 5 h at 37° C.; 100 nM procaspase
T2 construct: His6 (C); made in house; host or cells: E. coli BL21(DE3)RP, pET-21b
T2 sequence (P55210 1-303): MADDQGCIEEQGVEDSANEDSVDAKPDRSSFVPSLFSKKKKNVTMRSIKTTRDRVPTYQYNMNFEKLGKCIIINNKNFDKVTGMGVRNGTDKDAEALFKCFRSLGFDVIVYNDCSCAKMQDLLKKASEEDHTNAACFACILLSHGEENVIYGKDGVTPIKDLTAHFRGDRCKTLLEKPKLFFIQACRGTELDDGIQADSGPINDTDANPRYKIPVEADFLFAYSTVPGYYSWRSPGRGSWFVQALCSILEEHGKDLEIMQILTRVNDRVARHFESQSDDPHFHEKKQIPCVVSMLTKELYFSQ
Procedure, shortened: as §1

procaspase-3 = molecular target: T3, procaspase-3 (Homo sapiens, UniProt P42574); experiment: Executioner procaspase-3 activation assay (Ac-DEVD-AFC fluorogenic substrate)
T3 construct: His6 (C); made in house; host or cells: E. coli BL21(DE3)RP, pET-23b
T3 sequence (P42574 1-277): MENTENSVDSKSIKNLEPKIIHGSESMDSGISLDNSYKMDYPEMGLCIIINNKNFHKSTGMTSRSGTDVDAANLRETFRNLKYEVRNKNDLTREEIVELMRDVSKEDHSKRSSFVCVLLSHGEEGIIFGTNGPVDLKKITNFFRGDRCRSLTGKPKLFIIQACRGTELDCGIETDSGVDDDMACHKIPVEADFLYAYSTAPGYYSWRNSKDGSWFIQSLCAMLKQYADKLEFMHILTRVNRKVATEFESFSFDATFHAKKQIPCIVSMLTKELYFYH
Procedure, shortened: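 Procaspase-3 at 100 nM was incubated with activating compounds (100 nM to 100 uM) in 50 mM HEPES pH 7.4, 50 mM KCl, 1 mM DTT and 0.01% Triton-X100, the detergent limiting aggregation artefacts. Protein, substrate and inhibitor were kept as frozen aliquots and thawed just before use.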

[1] = incubation with compound for 5 h at 37° C., 100 nM procaspase, read-out: Procaspase Activation 3

SMILES | EC50 (procaspase-6) | EC50 (procaspase-7) | EC50 (procaspase-3; [1]) | EC50 (procaspase-3)
COc1cccc2cc(C(=O)Nc3cccc(-c4ccc5[nH]c(=O)[nH]c5c4)c3)c(=O)oc12 [compound 158, 8-Methoxy-2-oxo-2H-chromene-3-carboxylic acid [3-(2-oxo-2,3-dihydro-1H-benzoimidazol-5-yl)-phenyl]-amide] | > 100 µM | > 100 µM | > 100 µM | –
O=C(Nc1cccc(-c2ccc3nonc3c2)c1)c1cc2cccc(O)c2oc1=O [compound 159, 8-Hydroxy-2-oxo-2H-chromene-3-carboxylic acid (3-benzo[1,2,5]oxadiazol-5-yl-phenyl)-amide] | > 100 µM | > 100 µM | > 100 µM | –
COc1cccc2cc(C(=O)Nc3cccc(-c4ccc5nonc5c4)c3)c(=O)oc12 [compound 160, 8-Methoxy-2-oxo-2H-chromene-3-carboxylic acid (3-benzo[1,2,5]oxadiazol-5-yl-phenyl)-amide] | > 100 µM | > 100 µM | > 100 µM | –
O=C(Nc1cccc(-c2ccc3occc(=O)c3c2)c1)c1cc2cccc(O)c2oc1=O [compound 161, 8-Hydroxy-2-oxo-2H-chromene-3-carboxylic acid [3-(4-oxo-4H-chromen-6-yl)-phenyl]-amide] | > 100 µM | > 100 µM | 0.5 to 10 µM | –
COc1cccc2cc(C(=O)Nc3cccc(-c4ccc5occc(=O)c5c4)c3)c(=O)oc12 [compound 162, 8-Methoxy-2-oxo-2H-chromene-3-carboxylic acid [3-(4-oxo-4H-chromen-6-yl)-phenyl]-amide] | 0.5 to 10 µM | > 100 µM | > 100 µM | –
Cn1ccc2cc(-c3cccc(NC(=O)c4cc5cccc(O)c5oc4=O)c3)ccc21 [compound 163, 8-Hydroxy-2-oxo-2H-chromene-3-carboxylic acid [3-(1-methyl-1H-indol-5-yl)-phenyl]-amide] | > 100 µM | > 100 µM | > 100 µM | –
COc1cccc2cc(C(=O)Nc3cccc(-c4ccc5c(ccn5C)c4)c3)c(=O)oc12 [compound 164, 8-Methoxy-2-oxo-2H-chromene-3-carboxylic acid [3-(1-methyl-1H-indol-5-yl)-phenyl]-amide] | > 100 µM | > 100 µM | > 100 µM | –
O=C(Nc1cccc(-c2ccc3cc[nH]c3c2)c1)c1cc2cccc(O)c2oc1=O [compound 165, 8-Hydroxy-2-oxo-2H-chromene-3-carboxylic acid [3-(1H-indol-6-yl)-phenyl]-amide] | > 100 µM | > 100 µM | – | > 100 µM
COc1cccc2cc(C(=O)Nc3cccc(-c4ccc5cc[nH]c5c4)c3)c(=O)oc12 [compound 166, 8-Methoxy-2-oxo-2H-chromene-3-carboxylic acid [3-(1H-indol-6-yl)-phenyl]-amide] | > 100 µM | > 100 µM | – | > 100 µM
O=C(Nc1cccc(-c2cccc3[nH]ccc23)c1)c1cc2cccc(O)c2oc1=O [compound 167, 8-Hydroxy-2-oxo-2H-chromene-3-carboxylic acid [3-(1H-indol-4-yl)-phenyl]-amide] | > 100 µM | > 100 µM | – | > 100 µM
COc1cccc2cc(C(=O)Nc3cccc(-c4cccc5[nH]ccc45)c3)c(=O)oc12 [compound 168, 8-Methoxy-2-oxo-2H-chromene-3-carboxylic acid [3-(1H-indol-4-yl)-phenyl]-amide] | > 100 µM | > 100 µM | – | > 100 µM
O=C(Nc1cccc(-c2cnn(Cc3ccccc3)c2)c1)c1cc2cccc(O)c2oc1=O [compound 169, 8-Hydroxy-2-oxo-2H-chromene-3-carboxylic acid [3-(1-benzyl-1H-pyrazol-4-yl)-phenyl]-amide] | > 100 µM | > 100 µM | > 100 µM | –
COc1cccc2cc(C(=O)Nc3cccc(-c4cnn(Cc5ccccc5)c4)c3)c(=O)oc12 [compound 170, 8-Methoxy-2-oxo-2H-chromene-3-carboxylic acid [3-(1-benzyl-1H-pyrazol-4-yl)-phenyl]-amide] | > 100 µM | > 100 µM | > 100 µM | –
Cn1cc(-c2cccc(NC(=O)c3cc4cccc(O)c4oc3=O)c2)cn1 [compound 171, 8-Hydroxy-2-oxo-2H-chromene-3-carboxylic acid [3-(1-methyl-1H-pyrazol-4-yl)-phenyl]-amide] | > 100 µM | > 100 µM | > 100 µM | –
COc1cccc2cc(C(=O)Nc3cccc(-c4cnn(C)c4)c3)c(=O)oc12 [compound 172, 8-Methoxy-2-oxo-2H-chromene-3-carboxylic acid [3-(1-methyl-1H-pyrazol-4-yl)-phenyl]-amide] | > 100 µM | > 100 µM | > 100 µM | –
CC(C)(C)OC(=O)n1cccc1-c1cccc(NC(=O)c2cc3cccc(O)c3oc2=O)c1 [compound 173, 2-{3-[(8-Hydroxy-2-oxo-2H-chromene-3-carbonyl)-amino]-phenyl}-pyrrole-1-carboxylic acid tert-butyl ester] | > 100 µM | > 100 µM | > 100 µM | –
COc1cccc2cc(C(=O)Nc3cccc(-c4cccn4C(=O)OC(C)(C)C)c3)c(=O)oc12 [compound 174, 2-{3-[(8-Methoxy-2-oxo-2H-chromene-3-carbonyl)-amino]-phenyl}-pyrrole-1-carboxylic acid tert-butyl ester] | > 100 µM | > 100 µM | > 100 µM | –
CC(C)(C)OC(=O)n1c(-c2cccc(NC(=O)c3cc4cccc(O)c4oc3=O)c2)cc2ccccc21 [compound 175, 2-{3-[(8-Hydroxy-2-oxo-2H-chromene-3-carbonyl)-amino]-phenyl}-indole-1-carboxylic acid tert-butyl ester] | > 100 µM | > 100 µM | > 100 µM | –
COc1cccc2cc(C(=O)Nc3cccc(-c4cc5ccccc5n4C(=O)OC(C)(C)C)c3)c(=O)oc12 [compound 176, 2-{3-[(8-Methoxy-2-oxo-2H-chromene-3-carbonyl)-amino]-phenyl}-indole-1-carboxylic acid tert-butyl ester] | > 100 µM | > 100 µM | > 100 µM | –
O=C(Nc1cccc(-c2cc(F)cc(F)c2)c1)c1cc2cccc(O)c2oc1=O [compound 177, 8-Hydroxy-2-oxo-2H-chromene-3-carboxylic acid (3′,5′-difluoro-biphenyl-3-yl)-amide] | > 100 µM | > 100 µM | > 100 µM | –
COc1cccc2cc(C(=O)Nc3cccc(-c4cc(F)cc(F)c4)c3)c(=O)oc12 [compound 178, 8-Methoxy-2-oxo-2H-chromene-3-carboxylic acid (3′,5′-difluoro-biphenyl-3-yl)-amide] | 10 to 50 µM | > 100 µM | > 100 µM | –
